2 compounds from patent US20250340561A1, “QUINAZOLINE COMPOUND FOR INDUCING DEGRADATION OF G12D MUTANT KRAS PROTEIN” (Astellas Pharma Inc., priority 2021, published 2025) can be followed below.

The assay has as its target T1, KRAS G12D (Homo sapiens, UniProt P01116, G12D).
T1 construct: host or cells: AsPC-1 human pancreatic cancer cells
Briefly: Test Example 1-2: KRAS degradation action in AsPC-1, Cell ELISA. Type of assay: cell-based. To be noted: AsPC-1 cells, overnight treatment, corrected with β-actin, 0% = 10 μM Example No. 26 (Example No. 8 for Example Nos. 74 and 75). As to the method: Test Example 1-2: Evaluation of KRAS Degradation Action on Human G12D Mutant KRAS-Positive Pancreatic Cancer Line AsPC-1
The KRAS degradation action of test compounds was evaluated by measuring the expression levels of KRAS G12D by Cell ELISA.
[…] As for the cell culture conditions, a RPMI 1640 medium containing 10% fetal bovine serum was used in the presence of 5% CO2 at 37° C. The next day, the test compounds (10 points having final concentrations in the range of 10 μM to 0.3 nM), the compound of Example No. 26 (Example No. 8 for Example Nos. 74 and 75) of a final concentration of 10 μM as a positive control and DMSO, which was the solvent for the test compounds, as a negative control were diluted 500-fold with a fresh medium and were added at 20 μL per well. The cells were cultured overnight.
The next day, the culture supernatant was removed, and 4% paraformaldehyde phosphate buffer (from FUJIFILM Wako Pure Chemical Corporation) was added at 20 μL per well. The plate was allowed to stand for 30 minutes at room temperature to thus immobilize the cells. Then, the supernatant was removed, and 0.1% Triton X-100 (from Amersham Biosciences)-containing PBS was added at 20 μL per well. After allowing to stand for 10 minutes at room temperature, the supernatant was removed. PBS was added at 25 μL per well, and the supernatant was removed to thus wash each well. The washing was performed twice in total. Next, the supernatant was removed, and 0.5% sodium dodecyl sulfate (SDS; from Invitrogen)-containing PBS was added at 20 μL per well. After allowing to stand at room temperature for 10 minutes, the supernatant was removed by centrifugation (using a centrifugal dehydrator machine, the supernatant was removed by the same method hereinafter). PBS was added at 25 μL per well, and the supernatant was removed to thus wash each well. The washing was performed twice in total. The supernatant was removed by centrifugation, and a blocking solution (Intercept Blocking Buffer) was added at 20 μL per well. After allowing to stand for 30 minutes at room temperature, the supernatant was removed by centrifugation, and a solution obtained by diluting an anti-Ras (G12D Mutant Specific) antibody and an anti-3-actin antibody 1,000-fold with a blocking solution was added at 20 μL per well as a primary antibody. The plate was allowed to stand overnight at 4° C.
The next day, the plate was centrifuged to remove the supernatant. PBS was added at […], and the supernatant was removed to thus wash each well. The washing was performed twice in total. The supernatant was removed by centrifugation, and a solution obtained by diluting Donkey anti-Mouse IgG H&L (TRDye 680RD) (from Li—COR Biosciences) and Goat anti-Rabbit IgG H&L (IRDye 800CW) (from Li—COR Biosciences) 1,000-fold with a blocking solution was added at 20 μL per well as a secondary antibody. After allowing to stand for 1 hour at room temperature, the supernatant was removed. PBS was added at 25 μL per well, and the supernatant was removed to thus wash each well. The washing was performed twice in total. After removing the supernatant by centrifuging the plate, the plate was dried as it was with air at room temperature for 2 hours or more, and the 700-nm and 800-nm fluorescent signals were measured with Aerius (from LI-COR Biosciences).
With the signaling value at the time of addition of DMSO corrected with the signaling value of β-actin taken as 100% and with the signaling value at the time of addition of 10 μM of the compound of Example No. 26 taken as 0%, the 50% degradation values (DC50) of the amounts of KRAS were calculated by Sigmoid-Emax model nonlinear regression analysis. The molecular weights of the test compounds were calculated as the molecular weights of the trihydrochloride for Example No. 30, the tetrahydrochloride for Example No. 46 and the free forms forming no salt for the remaining Example Nos. The results for some test compounds of the formula (I) are shown in Table 2.

T1 sequence (P01116 1-188 isoform P01116-2 G12D): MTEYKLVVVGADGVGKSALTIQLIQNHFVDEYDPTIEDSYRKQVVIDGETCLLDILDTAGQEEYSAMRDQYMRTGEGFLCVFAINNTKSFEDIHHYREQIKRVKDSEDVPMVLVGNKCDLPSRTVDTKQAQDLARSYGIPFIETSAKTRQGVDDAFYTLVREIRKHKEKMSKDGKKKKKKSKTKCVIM

Regarding `Cc1ncsc1-c1ccc([C@H](CO)NC(=O)[C@@H]2C[C@@H](O)CN2C(=O)[C@@H](NC(=O)CCN(C)C(=O)c2ccc(COc3c(-c4c(C)c(F)cc5[nH]ncc45)c(C4CC4)cc4c(N5C[C@@H]6C[C@H]5CN6)nc(OC5CCOCC5)nc34)cc2)C(C)C)cc1` [Example 74], the DC50 turned out to be 1 µM.
As for `Cc1ncsc1-c1ccc([C@H](CO)NC(=O)[C@@H]2C[C@@H](O)CN2C(=O)[C@@H](NC(=O)C[C@@H]2CCN(C(=O)c3ccc(COc4c(-c5c(C)c(F)cc6[nH]ncc56)c(C5CC5)cc5c(N6C[C@@H]7C[C@H]6CN7)nc(OC6CCOCC6)nc45)cc3)C2)C(C)C)cc1` [Example 75], the figure is 5.89 µM.
